This is an account of results in patent US8563490B2, “Mild to the skin, foaming detergent composition” (Conopco, Inc., priority 2010, dated 2013).

In this series the target is a-Chymotrypsin from bovine pancreas (Bos taurus, UniProt P00766).

Method: The basis of the mildness assay is the enzymatic activity of Chymotrypsin on a chromogenic substrate. Surfactant mildness is assessed by the effect of a surfactant on the enzyme protein. A harsh surfactant will degrade Chymotrypsin, leading to a lower optical density reading in the reaction well. The enzyme used for this assay is a-Chymotrypsin from bovine pancreas. The enzyme used is the chromogenic substrate for Chymotrypsin, N-Succinyl-Ala-Ala-Pro-Phe-pNA.
The basis of the surfactant protein mildness detecting assay used was the enzymatic activity of Chymotrypsin on a chromogenic substrate. A harsh surfactant degrades Chymotrypsin, leading to a lower absorbance reading. Any reading greater than 0.8% is taken to be a pass for mildness.
For the skin protein protection assay, 70 μl stock buffer solution (33 mM of Tris pH8.0, 180 mM of NaCl, 1 mM of CaCl2), 10 μl substrate stock solution (Ala-Ala-Pro-Phe-pNA; 4 mg/ml) and 20 μl enzyme (α-Chyotrypsin; 10 ng per well) were added to the wells of a 96-well plate together with 100 ul of the formulations pre-diluted 1:10 in water. Reaction mixes were incubated for 45 minutes before colorimetric measurements were taken at 405 nm by a SpectraMax plate reader.

Regarding “Saponin extract from Zizyphus joazero [hh]”, the “Mildness Lsmean (least squares mean of Absorbance values)” value is 0.36.
